Reference: patent US12358867B1, “Peptoid-based inhibitors of the protein arginine methyltransferase (PRMT) family” (University of North Florida Board of Trustees, priority 2020, dated 2025)
Like-named read-outs stand apart in the source and are kept apart here. Starred links: 1 amine or outer side, 2 acyl side, 3 side chain; linkers in the order of their positions; H or OH if unused. Non-standard residues stand in square brackets, D forms with d. Residues, ends and D or L forms follow the SMILES beside them. Gly(N-(CH2)3-guanidino) = N=C(N)NCCCNCC(=O)O; X1 = N=C(CCl)NCCCN(CC(=O)[*:2])[*:1]; Gly(N-CH2CH2OH) = O=C(O)CNCCO; Nleu = CC(C)CNCC(=O)O; Nlys = NCCCCNCC(=O)O; Sar = CNCC(=O)O

Assays:
PRMT1 [1] = target: T1, PRMT1 (Homo sapiens, UniProt Q99873); test: IC50 assay, MTase-Glo Methyltransferase assay; type: biochemical
T1 construct: made in house
T1 sequence (Q99873 1-353 isoform Q99873-3, species assumed): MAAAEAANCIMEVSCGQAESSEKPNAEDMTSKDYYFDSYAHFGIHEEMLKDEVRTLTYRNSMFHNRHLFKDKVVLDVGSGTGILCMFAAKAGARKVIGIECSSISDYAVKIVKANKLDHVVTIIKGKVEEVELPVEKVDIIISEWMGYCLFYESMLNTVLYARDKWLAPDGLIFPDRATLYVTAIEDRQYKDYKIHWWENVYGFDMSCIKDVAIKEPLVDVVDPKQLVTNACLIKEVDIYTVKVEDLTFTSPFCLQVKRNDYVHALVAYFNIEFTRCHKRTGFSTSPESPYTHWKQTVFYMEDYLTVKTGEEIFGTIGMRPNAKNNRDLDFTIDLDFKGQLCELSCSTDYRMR
Description: The efficacy of the peptoid inhibitors was probed using the MTase-Glo Methyltransferase assay kit. Various concentrations (0-1000 μM) of peptoid was incubated in assay buffer (20 mM Tris-HCl pH 8.0, 50 mM NaCl, 1 mM EDTA, 3 mM MgCl2, 0.1 mg/ml BSA, 1 mM DTT) at 37° C. for 10 min. Afterward, the inhibitor was allowed to interact with 200 nM PRMT1 for 15 min at 37° C. The reaction was catalyzed with 225 μM of AcH4-21 (a PRMT1 peptide substrate), continued for 15 min at 37° C., was quenched with the addition of 0.5% TFA (0.1% final concentration, 10 min, r.t.), followed by the addition of MTase-Glo Reagent to a final concentration of 1×. After 30-min incubation at r.t., MTase-Glo Detection Solution was added and incubated for 30 min at r.t. Luminescence signal was converted to product concentration using SAH standards (0-5 μM), following the above assay. Immediately afterwards, the luminescence signal was read with a BioTek Synergy 2 Multi-Mode Microplate Reader. IC50 values were determined by fitting the data to equation (2) using GraFit version 7.03. Fractional activity of PRMT=1/(1+([I]/IC50)) (2) where [I] is the inhibitor concentration and IC50 is the concentration of inhibitor resulting in 50% PRMT activity.
The IC50 value for the peptoid inhibitors were measured using the MTase-Glo Methyltransferase assay kit (Promega). The peptoid was incubated in assay buffer (20 mM Tris-HCl pH 8.0, 50 mM NaCl, 1 mM EDTA, 3 mM MgCl2, 0.1 mg/mL BSA, 1 mM DTT) and substrate (0-1000 μM) at either 37° C. (PRMT1) or 25° C. (PRMT5). After a pre-incubation of 10 minutes, 200 nM PRMT1 or PRMT5 was added to the assay before adding in the substrate, AcH4-21, at 225 μM. The reaction proceeded for 15 minutes before being quenched with 0.5% TFA (0.1% final concentration), vortexed, and incubated for an additional 10 minutes. To detect product formation, the MTase-Glo Reagent was added for 30 minutes at r.t., followed by addition of the MTase-Glo Detection solution for an additional 30 minutes. Finally, the luminescence signal was measured using a BioTek Synergy 2 Multi-Mode Microplate Reader. The values were converted to product concentration using a standard curve of S-adenosylhomocysteine (SAH; 0-5 μM). The IC50 values were determined using equation 1 and fit to a curve using GraFit 7.03. Fractional activity of PRMT=1/(1+([I]/IC50)) (2) IC50 is the concentration of inhibitor resulting in 50% PRMT activity and [I] is the inhibitor concentration. Cell Culture and Conditions

PRMT1 [2] = target: T1, PRMT1; test: Km assay, MTase-Glo Methyltransferase assay (peptoid as substrate); type: biochemical; conditions: peptoid 0-1000 μM, 200 nM PRMT1
Description: The kinetics of each peptoid were determined using the MTase-Glo Methyltransferase assay kit to monitor the conversion of S-adenosylmethionine (SAM) to S-adenosylhomocysteine (SAH). Briefly, various concentrations (0-1000 μM) of the peptoid in assay buffer (20 mM Tris-HCl pH 8.0, 50 mM NaCl, 1 mM EDTA, 3 mM MgCl2, 0.1 mg/ml BSA, 1 mM DTT) were incubated at 37° C. After 10 min, 200 nM PRMT1 was added to initiate the reaction. The reaction proceeded for 10 min at 37° C. until quenched with the addition of 0.5% TFA (0.1% final concentration, 10 min, r.t.) followed by the addition of MTase-Glo Reagent to a final concentration of 1×. After 30 min incubating at r.t, MTase-Glo Detection Solution was added and incubated for 30 min at r.t. Immediately afterwards, the luminescence signal was read with a BioTek Synergy 2 Multi-Mode Microplate Reader. Luminescence signal was converted to product concentration using SAH standards (0-5 μM), following the above assay. The initial rates were fitted into equation (1) using GraFit version 7.03. V=Vmax[S]/(Km+[S]) (1) IC50 Assay

[3] = tested on: caspase-3 activity in HepaRG cells; conditions: only at the highest dose
Description: Caspase-3 activity assay was performed on extracted protein lysates using colorimetric caspase-3 activity assay (K106; Biovision) as per manufacturer's protocol. Briefly, 50 μL of extracted protein was plated in a UV compatible 96 well plate. DEVD-pNA substrate in prepared 1× buffer was added to each sample. The plate was shaken for 10 minutes and incubated at 37° C. in Biorad plate reader and read at 405 nm every 10 minutes for 2 hours.

[4] = tested on: Human Mammary Epithelial Cells (HMEC); conditions: normal HMEC, 72 hour time course
Description: (§1) MDA-MB-468 breast carcinoma cells (ATCC; HTB132), HCT116+/+p53 colon carcinoma cells were grown in DMEM supplemented in 5% FBS. HepaRG terminally differentiated liver cell line (Thermoscientific; HPRGC10) and HepaRG-Fucci cells were grown in Williams media supplemented with Glutamax and 5% FBS and normal Human Mammary Epithelial Cells (HMEC) (ATCC; PCS-600-010) were grown in Mammary epithelial basal medium (ATCC; PCS-600-030) supplemented with mammary epithelial cell growth kit (ATCC; PCS-600-040). Cells were recovered with 0.25% trypsin-EDTA, plated on cell culture treated plates and/or coverslips according to the experimental design and incubated overnight in 37° C. humidified CO2 incubator kept at 5% CO2 (800WJ; Thermoscientific). Cells were washed twice with sterile PBS before switching to serum free treatment media along with varying concentrations of the PRMT inhibitor compound (0-40 μM).
(§2) Cell viability and growth was assessed using the crystal violet assay as described by Oliver et al., J Cell Sci, 1989). […] Cells were fixed at each time point with 100% methanol and stained with 1% crystal violet in 0.01M borate buffer (pH 8.9). Absorbance of dye eluted in 1:1 (v/v) ethanol: 0.01M HCl was checked at 650 nm by microplate reader. The cell growth rate was calculated by the following formula: Cell growth rate (%)=(A650 at n hour/A650 0 h). Each condition was tested in triplicate and repeated three independent times.

[5] = tested on: HepaRG immortalized, terminally differentiated liver cells; conditions: non-tumorigenic HepaRG; for growth over time course: 72 hour time course
Description: as §1, §2

[6] = listed as unacetylated H4-16 warhead chloracetamidine peptoid
[7] = histone H4 peptoids, SAM 40 μM, substrate AcH4-21 225 μM, read-out: IC50

## CC(=O)N(CCO)CC(=O)NCC(=O)N(CCCNC(=N)N)CC(=O)NCC(=O)N(CCCCN)CC(=O)NCC(=O)NCC(=O)N(CCCCN)CC(=O)NCC(=O)N(CC(=O)NCC(=O)N(CCCCN)CC(=O)NCC(=O)NCC(=O)N(C)CC(=O)N(CCCCN)CC(N)=O)CC(C)C [AcH4-16 peptoid] (Ac-[Gly(N-CH2CH2OH)]G[Gly(N-(CH2)3-guanidino)]G[Nlys]GG[Nlys]G[Nleu]G[Nlys]GG[Sar][Nlys]-NH2)
PRMT1 [1]
  IC50: 916 ± 19.5 µM

## CC(=O)N(CCO)CC(=O)NCC(=O)N(CCCNC(=N)N)CC(=O)NCC(=O)N(CCCCN)CC(=O)NCC(=O)NCC(=O)N(CCCCN)CC(=O)NCC(=O)N(CC(=O)NCC(=O)N(CCCCN)CC(=O)NCC(N)=O)CC(C)C [AcH4-13] (Ac-[Gly(N-CH2CH2OH)]G[Gly(N-(CH2)3-guanidino)]G[Nlys]GG[Nlys]G[Nleu]G[Nlys]G-NH2)
PRMT1 [1]
  IC50: > 1000 µM
PRMT1 [2]
  modification / product turnover as PRMT1 substrate: low product turnover

## CC(C)CN(CC(=O)NCC(=O)N(CCCCN)CC(=O)NCC(=O)NCC(=O)N(C)CC(=O)N(CCCCN)CC(N)=O)C(=O)CNC(=O)CN(CCCCN)C(=O)CNC(=O)CNC(=O)CN(CCCCN)C(=O)CNC(=O)CN(CCCNC(=N)CCl)C(=O)CNC(=O)CNCCO [Peptoid P2] (H-[Gly(N-CH2CH2OH)]G[X1]G[Nlys]GG[Nlys]G[Nleu]G[Nlys]GG[Sar][Nlys]-NH2)
[3]
  caspase-3 activity: minimal activation of caspase-3
[3]; [6]
  caspase-3 activity: Only minimal activation of caspase-3
[4]
  growth over time course: no detectable effect in growth
[4]; [6]
  growth over time course: No detectable effect in growth
[5]; 0-40 μM, 48 hours
  cell viability: no prominent change
[5]
  growth over time course: no detectable effect in growth
[5]; [6]
  growth over time course: No detectable effect in growth

## N=C(N)NCCCN(CC(=O)NCC(=O)N(CCCCN)CC(=O)NCC(=O)NCC(=O)N(CCCCN)CC(N)=O)C(=O)CNC(=O)CNCCO [Peptoid H4-8] (H-[Gly(N-CH2CH2OH)]G[Gly(N-(CH2)3-guanidino)]G[Nlys]GG[Nlys]-NH2)
PRMT1 [1]; [7]
  IC50: > 1000 µM
PRMT1 [1]; up to 1000 μM
  inhibition of PRMT1: did not show any inhibition up to 1000 μM

## CC(=O)N(CCO)CC(=O)NCC(=O)N(CCCNC(=N)N)CC(=O)NCC(=O)N(CCCCN)CC(=O)NCC(=O)NCC(=O)N(CCCCN)CC(N)=O [AcH4-8] (Ac-[Gly(N-CH2CH2OH)]G[Gly(N-(CH2)3-guanidino)]G[Nlys]GG[Nlys]-NH2)
PRMT1 [1]; [7]
  IC50: > 1000 µM
PRMT1 [2]
  modification / product turnover as PRMT1 substrate: low product turnover
